The source of these data is patent US20100292306A1, “Compositions And Methods For The Treatment Of Muscular Dystrophy” (priority 2005, published 2010).

The assay has as its system mdx mice. Kind of assay: Noninvasive whole body tension (WBT) measurement of forward pulling tensions. Type of assay: in vivo. The text has this: FIG. 18 presents individual “forward pulling tensions” (FPTs; upward deflections) recorded from a PDTC-treated mouse (Series 2) using the whole body tension (WBT) technique (Carlson and Makiejus, 1990). The rank order of FPTs from highest to lowest is indicated by the numbers in the figure. […] In the Series 2 experiments, WBT measurements were obtained from each of the saline-injected and PDTC-injected mice on days 0, 9, 21 and 40 of the experiment.
As a first step in examining the potential effects of PDTC treatment on WBT tension development, the slope of the decline in FPTs was evaluated for each recording session for each mouse examined in the Series 2 experiments (FIG. 19A, 19B). This measure essentially provides a “fatigue index” (FI) since the slope of the decline in FPTs is a direct measure of the average magnitude of the decline in FPT per individual pull for rank-ordered pulls number 2 through 10. If 10 individual pulls obtained during the recording session have identical magnitudes representing the highest FPT, then the FI equals 0. In contrast, a 50% reduction in FPT per pull would produce an FI equal to −0.5.
To examine the potential effect of PDTC treatment on FI in age matched adult mdx mice, a pre-treatment FU was obtained during a typical recording session from each of 10 mdx mice used in the Series 2 investigations (age 9.5 to 16 months at beginning of study). Five of the mice were subsequently treated with daily injections of vehicle (HEPES buffered Ringer's solution) and 5 of the mice were treated with daily injections of 50 mg/kg PDTC. Recordings for each of the mice were subsequently obtained on days 9, 21, and 40 of the treatment period (e.g., FIG. 19). To determine the potential effects of treatment on FI, the FIs obtained on days 9, 21, and 40 (e.g., FIG. 19) were each normalized to the pre-treatment FI for each of the 10 mice used in the study. […] A decrease in the FI indicating a reduction in the average loss of tension per pull during the course of the study would produce normalized FIs less than one, no change in FI would be associated with normalized FIs equal to 1.0, and increases in FI would produce normalized FIs greater than 1.0.
Mdx (C57 Bl10-mdx) and nondystrophic (C57Bl10-SnJ) mice were obtained from Jackson laboratories and bred under conditions approved by the Institutional Animal Care and Use Committee (IACUC). All studies were performed in accordance with the guidelines provided by the IACUC. Male and female PDTC treated mdx mice received daily intraperitoneal (ip) injections of 50 mg/kg pyrollidine dithiocarbamate (PDTC; Sigma P8765) dissolved in sterile-filtered (0.2 μm) HEPES-buffered Ringers solution (147.5 mM NaCl, 5 mM KCl, 2 mM CaCl2, 11 mM glucose, 5 mM Hepes, pH 7.35). Age- and gender-matched groups of vehicle-treated mice received corresponding injections of HEPES Ringers. See Carlson et al., 2005. The PDTC experiments were conducted on two series of mature adult mdx mice (9.5-16 month; 19-20 months) and on a series of young adult (1 month) mice. In each case, the mice in the experimental and vehicle-treated groups were matched according to age and gender with an equal number of males and females in each group. WBT tension measurements were obtained prior to initiating treatment and on multiple occasions following at least 3 weeks (20 days) of treatment.
A group of 30 day-old mdx mice were exposed to daily ip injections (30 day) of 40 mg/kg UDCA (Sigma #5127; 2 mg/ml; N=12 experimental) in an isotonic saline vehicle (1.02% NaCl, pH 8.4,) or a synthetic taurine derivative of UDCA (tauroursodeoxycholic acid, TUDCA, SpA Laboratorio Farmacologico, Cenate Sotto, Italy; 6 mg/ml; N=4 experimental) administered in a saline vehicle (NaCl 6 g/l, KCl 0.3 g/l, CaCl2 0.2 g/l, Na acetate 4 g/l, 300 mosM/l, pH 6.1).
WBT measurements were obtained as indicated in Examples 5 through 7 by placing an approximately 0.5 inch square piece of adhesive tape around the tail about 1 inch from the tip. […]

The mark [1] stands for this setting: individual 6 month mdx male, 50 mg/kg for 30 days (FIG. 34C).
Where [2] appears, read: mature mdx, Series 2 through 4, post-treatment (at least 20 days), p<0.05.
Setting [3] is: mature mdx, Series 2 through 4, p<0.05.

“Also recorded” adds a separate entry of the source.

Consider `S=C(S)N1CCCC1` [PDTC, pyrrolidine dithiocarbamate], for which the “functional reserve FR (WBT10/WBT5)” value (50 mg/kg 30 consecutive days from about 30 days of age, at 60 days) is recorded as “approximately 0.9”. Moreover, the “normalized fatigue index (FI), effect of treatment over days” value (Series 2, 50 mg/kg daily, Kruskal-Wallis p<0.05, Day 0 vs Day 9 and Day 40) is listed as “significant effect”. Moreover, the “normalized FI vs vehicle-injected” value (Series 2, Day 40, p<0.05) was “significantly different”. Moreover, for the setting “Series 2, Days 9, 21 and 40 combined, p<0.05 vs vehicle”, the “fatigue index (FI), combined post-treatment results” value is “reducing; also recorded: reduces”. Moreover, the “normalized FI vs vehicle-injected” value (Series 2, Days 9 and 21) is recorded as “failed to reach significance”. For the same compound, under setting [1], the “FPT10 as percent of FPT1” value is recorded as “approximately 77%” and the “maximum FPT” value was “approximately 310 g”. Moreover, the “whole body strength” value (mature mdx mice) is reported as “significantly increasing”. Moreover, under setting [2], the “WBT5 vs vehicle-injected” value was “elevated” and the “WBT10 vs vehicle-injected” value was “elevated”. In addition, under setting [3], the “FR (WBT10/WBT5) post-treatment vs pre-treatment” value is on record as “increased” and the “WBT10 post-treatment vs pre-treatment” value was “increased”. Further, where the note is “young mdx, 60 days of age”, the “increase in WBT5 relative to vehicle” value is “did not reach statistical significance” and the “increase in WBT10 relative to vehicle” value is given as “did not reach statistical significance”. Where the note is “young mdx, 60 days of age, p<0.01”, the “FR relative to vehicle-injected mdx mice” value was “increased; also recorded: prevents a decline”.
